Assay results from patent publication US20240150293A1, “SPIROCYCLOHEXANE DERIVATIVES, PHARMACEUTICAL COMPOSITIONS CONTAINING THEM AND THEIR USES AS ANTI-APOPTOTIC INHIBITORS” (LES LABORATOIRES SERVIER, priority 2021, published 2024).
Where two headings read alike, the source gives them in different places.

Legend:
[1] = target: Cy5-labelled Mcl1 (amino acids 171-321) C286S protein (UniProtKB Q07820) (Homo sapiens (Human), UniProt Q07820, C286S); test: Inhibition of Mcl-1 by the fluorescence quenching assay (Example A, Method B); type: binding
How it was run: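 Eleven-point compound series incubated 2 h at room temperature with 1 nM Cy5-tagged protein and quencher-labelled PUMA peptide at 10, 20 or 400 nM in HEPES/NaCl/Tween 20, pH 7.4, 5% DMSO. IC50 for 50% fluorescence increase by 4-parameter fit, then Ki derived (complete cKi or estimated eKi).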

NCI-H929 cell lines = test: In vitro cytotoxicity, CellTiter-Glo (CTG) assay (Example B, Method B); type: cell-based; conditions: NCI-H929 cells, 48 h incubation, read-out: C50
How it was run: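 ATP-based luminescence (CellTiter-Glo) after 48 h incubation at 37° C., 5% CO2 gave NCI-H929 viability. Eleven concentrations tested, highest final 30 μM, dispensed acoustically from 10 mM DMSO stocks; C50 defined as concentration reaching 50% viability.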

Cy5-labelled Mcl1 (amino acids 171-321) C286S protein, sequence (Q07820 171-321 C286S): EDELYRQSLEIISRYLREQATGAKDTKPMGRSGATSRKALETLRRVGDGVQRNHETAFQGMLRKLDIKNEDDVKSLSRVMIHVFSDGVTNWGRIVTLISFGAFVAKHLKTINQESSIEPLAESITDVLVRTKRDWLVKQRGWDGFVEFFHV

Structure (SMILES) | Ki [1] [nM] | inhibition at 1 µM ([1]; @ 1 μM, read-out: Mcl-1 inhibition, % at a single concentration) [%] | Ki ([1]; Ki determined from IC50) [nM] | IC50 (NCI-H929 cell lines; Homo sapiens, NCI-H929, 48 h) [nM] | IC50 (NCI-H929 cell lines) [nM]
CCOc1ccc2c(c1)[C@]1(CC[C@@](Nc3ccc(F)c(Cl)c3)(C(=O)O)CC1)[C@@H](C[C@@H](C)COc1ccnc3c1[C@H](C)CCC3)C2 [Example 785, (1r,2′S,4S)-4-(3-chloro-4-fluoroanilino)-6′-ethoxy-2′-[(2R)-2-methyl-3-{[(5R)-5-methyl-5,6,7,8-tetrahydroquinolin-4-yl]oxy}propyl]-2′,3′-dihydrospiro[cyclohexane-1,1′-indene]-4-carboxylic acid] | 0.122 |  |  | 61 | 
COc1cc2c(cc1OC)[C@]1(CC[C@@](Nc3cccc(Cl)c3)(C(=O)O)CC1)[C@@H](C[C@@H](C)COc1ccnc3c1[C@H](C)CCC3)C2 [Example 835, (1r,2′S,4S)-4-(3-chloroanilino)-5′,6′-dimethoxy-2′-[(2R)-2-methyl-3-{[(5R)-5-methyl-5,6,7,8-tetrahydroquinolin-4-yl]oxy}propyl]-2′,3′-dihydrospiro[cyclohexane-1,1′-indene]-4-carboxylic acid] | 0.438 |  |  | 146 | 
C[C@@H](COc1ccnc2c1[C@H](C)CCC2)C[C@@H]1Cc2ccc(-c3ccsc3)cc2[C@]12CC[C@@](Nc1cccc(Cl)c1)(C(=O)O)CC2 [Example 879, (1r,2′R,4R)-4-(3-chloroanilino)-2′-[(2R)-2-methyl-3-{[(5R)-5-methyl-5,6,7,8-tetrahydroquinolin-4-yl]oxy}propyl]-6′-(thiophen-3-yl)-2′,3′-dihydrospiro[cyclohexane-1,1′-indene]-4-carboxylic acid] | 4.06 |  |  | 1360 | 
C[C@@H](COc1ccnc2c1[C@H](C)CCC2)C[C@H]1Cc2cc3c(cc2[C@]12CC[C@@](Nc1cccc(Cl)c1)(C(=O)O)CC2)OCC3 [Example 850, (1r,4S,6′S)-4-(3-chloroanilino)-6′-[(2R)-2-methyl-3-{[(5R)-5-methyl-5,6,7,8-tetrahydroquinolin-4-yl]oxy}propyl]-2′,3′,5′,6′-tetrahydrospiro[cyclohexane-1,7′-indeno[5,6-b]furan]-4-carboxylic acid] | 0.0173 |  |  | 50.9 | 
C[C@@H](COc1ccnc2c1[C@H](C)CCC2)C[C@H]1Cc2cc3c(cc2[C@]12CC[C@@](Nc1cccc(Cl)c1)(C(=O)O)CC2)CCO3 [Example 851, (1r,4S,6′S)-4-(3-chloroanilino)-6′-[(2R)-2-methyl-3-{[(5R)-5-methyl-5,6,7,8-tetrahydroquinolin-4-yl]oxy}propyl]-2′,3′,6′,7′-tetrahydrospiro[cyclohexane-1,5′-indeno[5,6-b]furan]-4-carboxylic acid] | 0.0256 |  |  | 34.9 | 
COc1cc2c(cc1C)C[C@H](C[C@@H](C)COc1ccnc3c1[C@H](C)CCC3)[C@]21CC[C@](Nc2cccc(Cl)c2)(C(=O)O)CC1 [Example 813, (1r,2′S,4S)-4-(3-chloroanilino)-6′-methoxy-5′-methyl-2′-[(2R)-2-methyl-3-{[(5R)-5-methyl-5,6,7,8-tetrahydroquinolin-4-yl]oxy}propyl]-2′,3′-dihydrospiro[cyclohexane-1,1′-indene]-4-carboxylic acid] | 0.0908 |  |  | 184 | 
C[C@@H](COc1ccnc2c1[C@H](C)CCC2)C[C@H]1Cc2ccc(-c3ccsc3)cc2[C@]12CC[C@@](Nc1cccc(Cl)c1)(C(=O)O)CC2 [Example 878, (1r,2′S,4S)-4-(3-chloroanilino)-2′-[(2R)-2-methyl-3-{[(5R)-5-methyl-5,6,7,8-tetrahydroquinolin-4-yl]oxy}propyl]-6′-(thiophen-3-yl)-2′,3′-dihydrospiro[cyclohexane-1,1′-indene]-4-carboxylic acid] | 0.386 |  |  | 1110 | 
COCc1cc2c(cc1F)CN(C[C@@H](C)COc1ccnc3c1[C@H](C)CCC3)[C@]21CC[C@](Nc2cccc(Cl)c2)(C(=O)O)CC1 [Example 51, (1s,4S)-4-(3-chloroanilino)-5′-fluoro-6′-(methoxymethyl)-2′-[(2R)-2-methyl-3-{[(5R)-5-methyl-5,6,7,8-tetrahydroquinolin-4-yl]oxy}propyl]-2′,3′-dihydrospiro[cyclohexane-1,1′-isoindole]-4-carboxylic acid] |  |  | 0.0762 | 37.7 | 
CC1CCNc2nccc(OC[C@H](C)C[C@H]3Cc4ccccc4[C@]34CC[C@@](Nc3cccc(Cl)c3)(C(=O)O)CC4)c21 (single isomer, unassigned) [Example 642] | 0.724 |  |  |  | 460

Continued, in another order:

Ki [1] [nM] | inhibition at 1 µM ([1]; @ 1 μM, read-out: Mcl-1 inhibition, % at a single concentration) [%] | Ki ([1]; Ki determined from IC50) [nM] | Structure (SMILES) | IC50 (NCI-H929 cell lines; Homo sapiens, NCI-H929, 48 h) [nM] | IC50 (NCI-H929 cell lines) [nM]
3.94 |  |  | COCC(=O)OC(C)OC(=O)[C@]1(Nc2cccc(Cl)c2)CC[C@@]2(CC1)c1cc3c(cc1C[C@@H]2C[C@@H](C)COc1ccnc2c1[C@H](C)CCC2)OCO3 (stereo partly drawn) [Example 941, 1-[(methoxyacetyl)oxy]ethyl (1r,4S,6′S)-4-(3-chloroanilino)-6′-[(2R)-2-methyl-3-{[(5R)-5-methyl-5,6,7,8-tetrahydroquinolin-4-yl]oxy}propyl]-6′,7′-dihydro-2′H-spiro[cyclohexane-1,5′-indeno[5,6-d][1,3]dioxole]-4-carboxylate] | 46.2 | 
0.0831 |  |  | CC[C@H]1COc2cc3c(cc2O1)C[C@H](C[C@@H](C)COc1ccnc2c1[C@H](C)CCC2)[C@]31CC[C@](Nc2cccc(Cl)c2)(C(=O)O)CC1 [Example 978, (1r,2′S,4S,7′S)-4-(3-chloroanilino)-2′-ethyl-7′-[(2R)-2-methyl-3-{[(5R)-5-methyl-5,6,7,8-tetrahydroquinolin-4-yl]oxy}propyl]-2′,3′,7′,8′-tetrahydrospiro[cyclohexane-1,6′-indeno[5,6-b][1,4]dioxine]-4-carboxylic acid] | 164 | 
69 |  |  | COCCOC(=O)[C@]1(Nc2cccc(Cl)c2)CC[C@@]2(CC1)c1cc3c(cc1C[C@@H]2C[C@@H](C)COc1ccnc2c1[C@H](C)CCC2)OCO3 [Example 934, 2-methoxyethyl (1r,4S,6′S)-4-(3-chloroanilino)-6′-[(2R)-2-methyl-3-{[(5R)-5-methyl-5,6,7,8-tetrahydroquinolin-4-yl]oxy}propyl]-6′,7′-dihydro-2′H-spiro[cyclohexane-1,5′-indeno[5,6-d][1,3]dioxole]-4-carboxylate] | > 30000 | 
0.0108 |  |  | COCc1cc2c(cc1F)C[C@H](C[C@@H](C)COc1ccnc3c1[C@H](C)CCC3)[C@]21CC[C@](Nc2cccc(Cl)c2)(C(=O)O)CC1 [Example 921, (1r,2′S,4S)-4-(3-chloroanilino)-5′-fluoro-6′-(methoxymethyl)-2′-[(2R)-2-methyl-3-{[(5R)-5-methyl-5,6,7,8-tetrahydroquinolin-4-yl]oxy}propyl]-2′,3′-dihydrospiro[cyclohexane-1,1′-indene]-4-carboxylic acid] | 35.9 | 
 | 13.9 |  | CC(C)OC(=O)OC(C)OC(=O)[C@]1(Nc2cccc(Cl)c2)CC[C@@]2(CC1)c1cc3c(cc1C[C@@H]2C[C@@H](C)COc1ccnc2c1[C@H](C)CCC2)OCO3 (stereo partly drawn) [Example 944, 1-({[(propan-2-yl)oxy]carbonyl}oxy)ethyl (1r,4S,6′S)-4-(3-chloroanilino)-6′-[(2R)-2-methyl-3-{[(5R)-5-methyl-5,6,7,8-tetrahydroquinolin-4-yl]oxy}propyl]-6′,7′-dihydro-2′H-spiro[cyclohexane-1,5′-indeno[5,6-d][1,3]dioxole]-4-carboxylate] | 2130 | 
2.52 |  |  | CCC(=O)OC(C)OC(=O)[C@]1(Nc2cccc(Cl)c2)CC[C@@]2(CC1)c1cc3c(cc1C[C@@H]2C[C@@H](C)COc1ccnc2c1[C@H](C)CCC2)OCO3 (stereo partly drawn) [Example 940, 1-(propanoyloxy)ethyl (1r,4S,6′S)-4-(3-chloroanilino)-6′-[(2R)-2-methyl-3-{[(5R)-5-methyl-5,6,7,8-tetrahydroquinolin-4-yl]oxy}propyl]-6′,7′-dihydro-2′H-spiro[cyclohexane-1,5′-indeno[5,6-d][1,3]dioxole]-4-carboxylate] | 266 | 
0.0264 |  |  | CC1COc2cc3c(cc2OC1)[C@]1(CC[C@@](Nc2cccc(Cl)c2)(C(=O)O)CC1)[C@@H](C[C@@H](C)COc1ccnc2c1[C@H](C)CCC2)C3 (single isomer, unassigned) [Example 982] |  | 157
0.00447 |  |  | C[C@@H](COc1ccnc2c1[C@H](C)CCC2)C[C@H]1Cc2cc3c(cc2[C@]12CC[C@@](Nc1cccc(Cl)c1)(C(=O)O)CC2)O[C@H](C)CCO3 [Example 987, (1r,4S,4′R,8′S)-4-(3-chloroanilino)-4′-methyl-8′-[(2R)-2-methyl-3-{[(5R)-5-methyl-5,6,7,8-tetrahydroquinolin-4-yl]oxy}propyl]-3′,4′,8′,9′-tetrahydro-2′H-spiro[cyclohexane-1,7′-indeno[5,6-b][1,4]dioxepine]-4-carboxylic acid] | 37.7 | 
0.0163 |  |  | C[C@@H](COc1ccnc2c1[C@H](C)CCC2)C[C@H]1Cc2cc3c(cc2[C@]12CC[C@@](Nc1cccc(Cl)c1)(C(=O)O)CC2)O[C@H](C)[C@@H](C)O3 [Example 976, (1r,2′R,3′R,4S,7′S)-4-(3-chloroanilino)-2′,3′-dimethyl-7′-[(2R)-2-methyl-3-{[(5R)-5-methyl-5,6,7,8-tetrahydroquinolin-4-yl]oxy}propyl]-2′,3′,7′,8′-tetrahydrospiro[cyclohexane-1,6′-indeno[5,6-b][1,4]dioxine]-4-carboxylic acid] | 72.5 | 
0.0666 |  |  | CC(C)C1COc2cc3c(cc2OC1)[C@]1(CC[C@@](Nc2cccc(Cl)c2)(C(=O)O)CC1)[C@@H](C[C@@H](C)COc1ccnc2c1[C@H](C)CCC2)C3 (single isomer, unassigned) [Example 993] |  | 143
